Experimental data as given in patent publication US20240423973A1, “COMPOUNDS, PHARMACEUTICAL COMPOSITIONS, AND METHODS FOR THE TREATMENT, PREVENTION, OR MANAGEMENT OF HYPERPROLIFERATIVE DISORDERS” (VINCERX PHARMA GMBH, priority 2021, published 2024).
*1 amine or outer side, *2 acyl side, *3 side chain or, on linkers, in order; H or OH if unused. Where a SMILES comes first, the peptide text is derived from it. Bridges are numbered along the chain shown (N, C = ends). Roman numbers before positions name the chains, in order. [ ]: non-standard residue; d: D form. The star is where a group is joined. X1 = CCCNC(=O)Nc1cccc(S(=O)(=O)Nc2cccc([C@@H](CC(=O)O)NC(=O)Nc3ccc(N*)cc3)c2)c1; Camptothecin(7-Et) = CCc1c2c(nc3ccccc13)-c1cc3c(c(=O)n1C2)COC(=O)[C@@]3(CC)O*; Glutaryl = O=C(CCCC(=O)[*:2])[*:1]; PEG3 = NCCOCCOCCOCCC(=O)O; CO = O=C([*:1])[*:2]; Sar = CNCC(=O)O

Experiments:
786-O [1] = assay: Cytotoxicity assay (Version 2), automated, AC50; format: cell-based, human; conditions: 786-O cells, Version 2, activity concentration at -50%, 4 parameter Hill-fit
Method: (§1) Cultivation of cells was performed according to standard procedures with the media recommended by the provider. The cells, in a total volume of 100 μL, were seeded in a 96-well plate with a white bottom (#3610). After a 24 h incubation period at 37° C. and 5% CO2, the medium was exchanged by adding 90 μL fresh medium. The treatment started by adding the test compound in 10 μL of culture medium to the cells in triplicates. Concentrations ranging from 10^−5 M to 10^−13 M were chosen. Two identically treated sets of samples were prepared. One set was treated with the test compound alone, whereas to the second set the compound and 10 nM elastase was added followed by a 72 h incubation period at 37° C. and 5% CO2. The proliferation was detected using the MTT assay (ATCC). At the end of the incubation period the MTT reagent was added to all samples for 4h. Lysis of the cells followed by addition of the detergent was done overnight. The formed dye was detected at 570 nm. The proliferation of untreated but otherwise identically handled cells was define as the […].
(§2) The Cytotoxicity assay (Version 2) was performed as above described. Some changes were applied as the assays were performed in an automated fashion and the IC50 values determination was changed. Here the change in metabolic activity of the cells, in percent, was calculated by normalization of the measured values to the absorbance values of medium containing wells without cells (=−100% ) and the absorbance of the DMSO-treated cells (=0% ). AC50 values (activity concentration at -50% o) were determined by means of a 4 parameter Hill-fit using GeneData Screener software.

HT29 [2] = assay: Cytotoxicity assay (Version 2), automated, AC50; format: cell-based, human; conditions: HT29 cells, Version 2, activity concentration at -50%, 4 parameter Hill-fit
Method: as §1, §2

NCI H292 [3] = assay: Cytotoxicity assay (Version 2), automated, AC50; format: cell-based, human; conditions: NCI H292 cells, Version 2, activity concentration at -50%, 4 parameter Hill-fit
Method: as §1, §2

SUM149 [4] = assay: Cytotoxicity assay (Version 2), automated, AC50; format: cell-based; conditions: SUM149 cells, Version 2, activity concentration at -50%, 4 parameter Hill-fit
Method: as §1, §2

[5] = Pharmacokinetics in rat after intravenous administration; format: in vivo; conditions: male rats, intravenous 0.5 mg/kg bolus, plasma, non-compartmental analysis; for Vd: read-out: Vss
Method: Male rats (n=3) were given an intravenous 0.5 mg/kg bolus dose of test article dissolved in plasma with 1% DMSO and 1% ethanol (Ex A3 only). Serial blood samples were collected up to 24 hours post-dose. Plasma was harvested from blood samples and stored frozen until sample analysis. Test article plasma concentrations were analyzed by LC/MS/MS.

786-O [6] = assay: Cytotoxicity in vitro in the presence and absence of elastase (MTT assay); format: cell-based, human; conditions: 786-O cells, 72 h
Method: as §1

HT29 [7] = assay: as above; format: cell-based, human; conditions: HT29 cells, 72 h
Method: as §1

NCI H292 [8] = assay: as above; format: cell-based, human; conditions: NCI H292 cells, 72 h
Method: as §1

SUM149 [9] = assay: as above; format: cell-based; conditions: SUM149 cells, 72 h
Method: as §1

Compound	AUC [5]	clearance [5]	half-life [5]	Vd [5]	IC50 (786-O [6]; compound alone (no elastase))	IC50 (786-O [6]; with 10 nM elastase)	IC50 (HT29 [7]; compound alone (no elastase))	IC50 (HT29 [7]; with 10 nM elastase)	IC50 (NCI H292 [8]; compound alone (no elastase))	IC50 (NCI H292 [8]; with 10 nM elastase)	IC50 (SUM149 [9]; compound alone (no elastase))	IC50 (SUM149 [9]; with 10 nM elastase)	also measured
CCCNC(=O)Nc1cccc(S(=O)(=O)Nc2cccc([C@@H](CC(=O)O)NC(=O)Nc3ccc(NC(=O)NCCOCCOCCOCCC(=O)N[C@@H](CCCCNC(=O)CCCC(=O)N(C)CC(=O)N(C)CC(=O)N(C)CC(=O)N(C)CC(=O)N(C)CC(=O)N(C)CC(=O)N(C)CC(=O)N(C)CC(=O)O)C(=O)NCCOCCOCCOCCC(=O)N[C@@H](CC(=O)O)C(=O)N4CCC[C@H]4C(=O)N[C@H](C(=O)O[C@]4(CC)C(=O)OCc5c4cc4n(c5=O)Cc5c-4nc4ccccc4c5CC)C(C)C)cc3)c2)c1 [Compound E4]													AC50 (786-O [1]; no elastase): 110 to 1000 nM; AC50 (786-O [1]; with elastase): ≤ 10 nM; AC50 (HT29 [2]; no elastase): 110 to 1000 nM; AC50 (HT29 [2]; with elastase): 11 to 100 nM; AC50 (NCI H292 [3]; no elastase): 110 to 1000 nM; AC50 (NCI H292 [3]; with elastase): ≤ 10 nM; AC50 (SUM149 [4]; no elastase): 110 to 1000 nM; AC50 (SUM149 [4]; with elastase): ≤ 10 nM
CCCNC(=O)Nc1cccc(S(=O)(=O)Nc2cccc([C@@H](CC(=O)O)NC(=O)Nc3ccc(NC(=O)NCCOCCOCCOCCC(=O)NCCCC[C@H](NC(=O)CCOCCOCCOCCNC(=O)Nc4ccc(NC(=O)N[C@H](CC(=O)O)c5cccc(NS(=O)(=O)c6cccc(NC(=O)NCCC)c6)c5)cc4)C(=O)NCCOCCOCCOCCC(=O)N[C@@H](CC(=O)O)C(=O)N4CCC[C@H]4C(=O)N[C@H](C(=O)O[C@]4(CC)C(=O)OCc5c4cc4n(c5=O)Cc5c-4nc4ccccc4c5CC)C(C)C)cc3)c2)c1 [Compound A3]	50000 to 150000 ng·h/mL	0.05 to 0.5 mL/min/kg	10 to 15 h	0.01 to 0.1 L/kg									
CCCNC(=O)Nc1cccc(S(=O)(=O)Nc2cccc([C@@H](CC(=O)O)NC(=O)Nc3ccc(NC(=O)NCCOCCOCCOCCC(=O)N[C@@H](CCCCNC(=O)CCCC(=O)N(C)CC(=O)N(C)CC(=O)N(C)CC(=O)N(C)CC(=O)O)C(=O)NCCOCCOCCOCCC(=O)N[C@@H](CC(=O)O)C(=O)N4CCC[C@H]4C(=O)N[C@H](C(=O)O[C@]4(CC)C(=O)OCc5c4cc4n(c5=O)Cc5c-4nc4ccccc4c5CC)C(C)C)cc3)c2)c1 [Compound E3] (I: {X1-CO-PEG3}-K[PEG3]DPV-{Camptothecin(7-Et)} / II: [Sar][Sar][Sar][Sar]-OH; linker I:1-II:N via Glutaryl)	10000 to 50000 ng·h/mL	0.5 to 5 mL/min/kg	5 to 10 h	> 0.1 L/kg									
CCCNC(=O)Nc1cccc(S(=O)(=O)Nc2cccc([C@@H](CC(=O)O)NC(=O)Nc3ccc(NC(=O)NCCOCCOCCOCCC(=O)N[C@@H](CCCCNC(=O)CCCC(=O)NCCOCCOCCOCCC(=O)N[C@@H](CC(=O)O)C(=O)N4CCC[C@H]4C(=O)N[C@H](C(=O)O[C@]4(CC)C(=O)OCc5c4cc4n(c5=O)Cc5c-4nc4ccccc4c5CC)C(C)C)C(=O)NCCC(=O)O)cc3)c2)c1 [Compound E1]	10000 to 50000 ng·h/mL	0.5 to 5 mL/min/kg	5 to 10 h	> 0.1 L/kg									
CCCNC(=O)Nc1cccc(S(=O)(=O)Nc2cccc([C@@H](CC(=O)O)NC(=O)Nc3ccc(NC(=O)NCCOCCOCCOCCC(=O)N[C@@H](CCCCNC(=O)CCCC(=O)NCCOCCOCCOCCC(=O)N[C@@H](CC(=O)O)C(=O)N4CCC[C@H]4C(=O)N[C@H](C(=O)O[C@]4(CC)C(=O)OCc5c4cc4n(c5=O)Cc5c-4nc4ccccc4c5CC)C(C)C)C(=O)NCCCCCCCC(=O)O)cc3)c2)c1 [Compound E2]	50000 to 150000 ng·h/mL	0.5 to 5 mL/min/kg	5 to 10 h	0.01 to 0.1 L/kg									
CCCNC(=O)Nc1cccc(S(=O)(=O)Nc2cccc([C@@H](CC(=O)O)NC(=O)Nc3ccc(NC(=O)NCCN(C)CCN(C)CCN(C)CC(=O)N[C@@H](CC(N)=O)C(=O)N4CCC[C@H]4C(=O)N[C@H](C(=O)O[C@]4(CC)C(=O)OCc5c4cc4n(c5=O)Cc5c-4nc4ccccc4c5CC)C(C)C)cc3)c2)c1.Cl.Cl.Cl [Compound B4b, (4S)-4,11-diethyl-3,14-dioxo-3,4,12,14-tetrahydro-1H-pyrano[3′,4′:6,7]indolizino[1,2-b]quinolin-4-yl N^2-{13-[4-({[(1R)-2-carboxy-1-{3-[({3-[(propylcarbamoyl)amino]phenyl}sulfonyl)amino]phenyl}ethyl]carbamoyl}amino)anilino]-3,6,9-trimethyl-13-oxo-12-aza-3,6,9-triazoniatridecan-1-oyl}-L-asparaginyl-L-prolyl-L-valinate trichloride]	1000 to 10000 ng·h/mL	0.5 to 5 mL/min/kg	5 to 10 h	> 0.1 L/kg	10 to 100 nM	0.1 to 1 nM	10 to 100 nM	0.1 to 1 nM	10 to 100 nM	0.1 to 1 nM	10 to 100 nM	0.01 to 0.1 nM	
CCCNC(=O)Nc1cccc(S(=O)(=O)Nc2cccc([C@@H](CC(=O)O)NC(=O)Nc3ccc(NC(=O)NCCN(C)CCN(C)CCN(C)CC(=O)N[C@@H](CC(N)=O)C(=O)N4CCC[C@H]4C(=O)N[C@H](C(=O)O[C@]4(CC)C(=O)OCc5c4cc4n(c5=O)Cc5c-4nc4ccccc4c5CC)C(C)C)cc3)c2)c1 [Compound B4, (4S)-4,11-Diethyl-3,14-dioxo-3,4,12,14-tetrahydro-1H-pyrano[3′,4′:6,7]indolizino[1,2-b]quinolin-4-yl N-{2-[{2-[{2-[({4-[({(1R)-2-carboxy-1-[3-({3-[(propylcarbamoyl)amino]benzene-1-sulfonyl}amino)phenyl]ethyl}carbamoyl)amino]phenyl}carbamoyl)amino]ethyl} (methyl)amino]ethyl} I(methyl)amino]ethyl}-N-methylglycyl-L-asparaginyl-L-prolyl-L-valinate]					10 to 100 nM	0.01 to 0.1 nM	10 to 100 nM	0.01 to 0.1 nM	10 to 100 nM	0.01 to 0.1 nM	1.1 to 10 nM	< 0.01 nM	
CCCNC(=O)Nc1cccc(S(=O)(=O)Nc2cccc([C@@H](CC(=O)OCC[N+](C)(C)C)NC(=O)Nc3ccc(NC(=O)NCCOCCOCCOCCC(=O)N[C@@H](CC(=O)OCC[N+](C)(C)C)C(=O)N4CCC[C@H]4C(=O)N[C@H](C(=O)O[C@]4(CC)C(=O)OCc5c4cc4n(c5=O)Cc5c-4nc4ccccc4c5CC)C(C)C)cc3)c2)c1 [Compound C9]					10 to 100 nM	1.1 to 10 nM	10 to 100 nM	0.1 to 1 nM	10 to 100 nM	0.1 to 1 nM	10 to 100 nM	0.1 to 1 nM	
CCCNC(=O)Nc1cccc(S(=O)(=O)Nc2cccc([C@@H](CC(=O)OCCCN)NC(=O)Nc3ccc(NC(=O)NCCOCCOCCOCCC(=O)N[C@@H](CC(=O)OCCCN)C(=O)N4CCC[C@H]4C(=O)N[C@H](C(=O)O[C@]4(CC)C(=O)OCc5c4cc4n(c5=O)Cc5c-4nc4ccccc4c5CC)C(C)C)cc3)c2)c1 [Compound C8]					10 to 100 nM	0.1 to 1 nM	> 100 nM	0.1 to 1 nM	1.1 to 10 nM	0.1 to 1 nM	1.1 to 10 nM	0.1 to 1 nM	
CCCNC(=O)Cc1cccc(S(=O)(=O)Nc2cccc([C@@H](CC(=O)O)NC(=O)Nc3ccc(NC(=O)NCCOCCOCCOCCC(=O)N[C@@H](CCCCNC(=O)CCOCCOCCOCCNC(=O)Nc4ccc(NC(=O)N[C@H](CC(=O)O)c5cccc(CS(=O)(=O)c6cccc(NC(=O)NCCC)c6)c5)cc4)C(=O)NCCN(C)CCN(C)CCN(C)CC(=O)N[C@@H](CC(N)=O)C(=O)N4CCC[C@H]4C(=O)N[C@H](C(=O)O[C@]4(CC)C(=O)OCc5c4cc4n(c5=O)Cc5c-4nc4ccccc4c5CC)C(C)C)cc3)c2)c1 [Compound A5]					10 to 100 nM	0.01 to 0.1 nM	10 to 100 nM	0.01 to 0.1 nM	1.1 to 10 nM	< 0.01 nM	1.1 to 10 nM	< 0.01 nM	
